The values below come from patent US7119123B2, “Antimicrobially active 4-methyl-4-aryl-2-pentanols, their preparation and use” (Symrise GmbH & Co. KG, priority 2004, dated 2006).

For assay [1], the system named is Brevibacterium epidermidis. The experiment in a line: agar dilution method, MIC. The class given is cell-based. The following applies: ATCC35514; Brevibacterium epidermidis ATCC 35514; Mueller-Hinton agar, aerobic, 18 h at 36° C.; read-out: MIC (minimum inhibitory concentration). Here is the method:
(§1) Petri dishes 5.5 cm in diameter were charged with 8.7 ml freshly prepared Mueller-Hinton agar (Merck, Ref. 1.05437 or Wilkins-Chalgren agar boillon (sic), Oxoid, Ref. CM 643, supplemented with 10 g agar-agar/liter) kept liquid at 50° C., to which the various concentrations of the diluted samples were added in 3.3% (V/V)=0.3 ml. Mueller-Hinton agar that contained 3% Tween80 (Merck, Ref. 8.22 187) was used for the test germ Malassezia furfur.
(§2) 2.6 ml of the 3.3% samples were diluted with ethanol (96%; Merck, Ref. 1.00971). The further test concentrations of the particular dilution series, which were prepared in the form of geometric series, were prepared by progressive 2:1 dilution with ethanol (96%).
(§3) The concentrations indicated below relate to the pure substance and have been converted to ppm. Two agar plates were poured per test concentration and nutrient medium.
(§4) After solidification and drying (approximately 1 h at 37° C.), the test plates were inoculated in point form with, in each case, 1 μl of the test germ suspensions listed in the examples below. To check purity and identity, the bacteria (Brevibacterium epidermidis, Corynebakterium (sic) xerosis, Staphylococcus aureus; Staphylococcus epidermidis) which grow aerobically, were [lacuna] on Columbia blood agar (BioMérieux, Ref. 43049). The mould Aspergillus niger, the yeast Candida albicans and the skin fungus Trichophyton mentagrophytes were cultivated on Sabouraud agar (BioMérieux, Ref. 43555). Malassezia furfur was cultured on Sabourad-HLT agar with inhibitors (addition of Tween80: 1%; lecithin: 0.3%; histidine: 0.1%; Merck, Ref. 1.18368). Propionibacterium acnes was cultivated on Schaedler agar (BioMérieux, Ref. 43273). Further data on the test germs can be taken from Table 1.
(§5) The preparation of the test germ suspensions of the bacterial germs that grow aerobically was carried out by incubation of Mueller-Hinton broth (Merck, Ref. 1.10293) which had been inoculated with a few individual colonies of the relevant test germs, at 36° C. After a distinct turbidity had been obtained, sterile nutrient broth was added to the suspensions in such an amount that the turbidity thereof corresponded to McFarland Standard 0.5 (approx. 1.5×10^8 CFU/ml).
(§6) All test germ suspensions with the exception of Propionibacterium acnes were diluted again 1:10 with sterile broth and the germ count thereof was determined by the surface method using a Spiralometer (results: see Table 1).
(§7) The MIC (minimum inhibitory concentration) was regarded as the lowest concentration of active compound at which macroscopically there is no growth. Minimal, barely visible growth or few small individual colonies were evaluated as inhibition.
(§8) The MIC values of various (R/S)-4-methyl-4-aryl-2-pentanols were determined in accordance with the general test conditions described under 2.1. (c.f. Table 3; MIC values for (R/S[lacuna]-4-methyl-4-phenyl-2-pentanol, for (R/S)-4-methyl-4-p-tolyl-2-pentanol, (R/S)-4-methyl-4-p-cumenyl-2-pentanol and (R/S)-4-methyl-4-(4-n-butylphenyl)-2-pentanol).

The next assay deals with Corynebacterium xerosis. The experiment in a line: agar dilution method, MIC. The assay is classed as cell-based. To be noted: ATCC7711; Corynebacterium xerosis ATCC 7711; Mueller-Hinton agar, aerobic, 18 h at 36° C.; read-out: MIC (minimum inhibitory concentration). Here is the method: as §1, §2, §3, §4, §5, §6, §7, §8
On the technique in general: In agar dilution the substance is mixed into plates at graded concentrations.

Assay [2] relates to Staphylococcus epidermidis. The experiment in a line: agar dilution method, MIC. The following applies: ATCC12228; Staphylococcus epidermidis ATCC 12228; Mueller-Hinton agar, aerobic, 18 h at 36° C.; read-out: MIC (minimum inhibitory concentration). The class given is cell-based. The procedure:
as §1, §2, §3, §4, §5, §6, §7, §8

The next assay has as its system Propionibacterium acnes. Description: agar dilution method, MIC. To be noted: for MIC: Cutibacterium acnes, ATCC11829, Propionibacterium acnes ATCC 11829, Wilkins-Chalgren agar, anaerobic, 72 h at 36° C., read-out: MIC (minimum inhibitory concentration); for activity against Propionibacterium acnes (in words): text comment on Table 3. The assay is classed as cell-based. The procedure:
as §1, §2, §3, §4
(§9) For preparation of the other test germ suspensions, the test strains were cultured on the abovementioned solid nutrient medium, harvested using sterile swabs and taken up or diluted in such an amount of Mueller-Hinton broth that the turbidity of the suspensions corresponded to McFarland standard 0.5.
as §7, §8

Another assay concerns Aspergillus niger. The experiment in a line: agar dilution method, MIC. The class given is cell-based. The following applies: for MIC: ATCC16404, Aspergillus niger ATCC 16404, Mueller-Hinton agar, aerobic, 48 h at 30° C., read-out: MIC (minimum inhibitory concentration); for effectiveness against moulds (in words): comparison among substances 2-5. The procedure: as §1, §2, §3, §4, §9, §6, §7, §8

The test system of a further assay is Candida albicans. The experiment in a line: agar dilution method, MIC. The class given is cell-based. To be noted: for MIC: ATCC10231, Candida albicans ATCC 10231, Mueller-Hinton agar, aerobic, 48 h at 30° C., read-out: MIC (minimum inhibitory concentration); for effectiveness against yeasts such as Candida albicans (in words): comparison among substances 2-5. Here is the method: as §1, §2, §3, §4, §9, §6, §7, §8

Another assay has as its system Malassezia furfur. The experiment in a line: agar dilution method, MIC. The assay is classed as cell-based. The following applies: DSM6171; Malassezia furfur DSM 6171; Mueller-Hinton agar + 3% Tween 80, aerobic, 72 h at 30° C.; read-out: MIC (minimum inhibitory concentration). Here is the method: as §1, §2, §3, §4, §9, §6, §7, §8
In assay [3] the test system is Trichophyton mentagrophytes. The experiment in a line: agar dilution method, MIC. The assay is classed as cell-based. To be noted: CBS26379; Trichophyton mentagrophytes CBS 26379; Mueller-Hinton agar, aerobic, 72 h at 30° C.; read-out: MIC (minimum inhibitory concentration). Here is the method: as §1, §2, §3, §4, §9, §6, §7, §8
In a further assay the test system is Escherichia coli. The experiment in a line: agar dilution method, MIC. The class given is cell-based. To be noted: read-out: MIC (minimum inhibitory concentration). Here is the method:
as §1, §2, §3, §7, §8

The next assay deals with Pseudomonas aeruginosa. The experiment in a line: agar dilution method, MIC. The class given is cell-based. To be noted: read-out: MIC (minimum inhibitory concentration). Here is the method: as §1, §2, §3, §7, §8
Another assay relates to glycolysis. The following applies: known from J. Dental Res. 40,384 (1961); cariostatic; cited from earlier work.

Where only a bound is given, the exact number is not on record here.

Regarding `CC(O)CC(C)(C)c1ccc(C(C)C)cc1` (racemic) [Formula 4, (R,S)-4-methyl-4-p-cumenyl-2-pentanol], the MIC in [1] is 138 µg/mL; in the assay on Corynebacterium xerosis it was 69 µg/mL; in assay [2], 138 µg/mL; with Propionibacterium acnes it was 138 µg/mL; in the assay with Aspergillus niger it was above 1100 µg/mL; in the assay with Candida albicans it was above 1100 µg/mL. Also, the MIC in the assay with Malassezia furfur was 550 µg/mL; in [3] it was 69 µg/mL; with Escherichia coli, above 1100 µg/mL; in the assay on Pseudomonas aeruginosa, above 1100 µg/mL.

For `CCCCc1ccc(C(C)(C)CC(C)O)cc1` (racemic) [Formula 5, (R,S)-4-methyl-4-(4-n-butylphenyl)-2-pentanol], the MIC is 550 µg/mL in [1]; 69 µg/mL in the assay on Corynebacterium xerosis; 1100 µg/mL in assay [2]; above 1100 µg/mL in the assay on Propionibacterium acnes; above 1100 µg/mL with Aspergillus niger; above 1100 µg/mL with Candida albicans. The MIC with Malassezia furfur is 550 µg/mL; in assay [3], 69 µg/mL; in the assay on Escherichia coli, above 1100 µg/mL; in the assay with Pseudomonas aeruginosa, above 1100 µg/mL. Besides, the “activity against Propionibacterium acnes (in words)” value (from here on “activity”) in the assay with Propionibacterium acnes is “an activity can also be observed”.

Regarding `Cc1ccc(C(C)(C)CC(C)O)cc1` (racemic) [Formula 3, (R,S)-4-methyl-4-p-tolyl-2-pentanol], the MIC in [1] was found to be 550 µg/mL; in the assay with Corynebacterium xerosis, 275 µg/mL; in [2], 550 µg/mL; in the assay on Propionibacterium acnes it was 550 µg/mL; in the assay with Aspergillus niger, 550 µg/mL; in the assay with Candida albicans it was 1100 µg/mL. The MIC is 69 µg/mL in the assay with Malassezia furfur, 138 µg/mL in [3], above 1100 µg/mL in the assay with Escherichia coli and above 1100 µg/mL in the assay on Pseudomonas aeruginosa. The “activity” value in the assay with Propionibacterium acnes is recorded as “an activity can also be observed”. Besides, the “effectiveness against moulds (in words)” value with Aspergillus niger is “most effective”. For the same compound, the “effectiveness against yeasts such as Candida albicans (in words)” value with Candida albicans is given as “most effective”.

As for `CC(O)CC(C)(C)c1ccccc1` (racemic) [Formula 2, (R,S)-4-methyl-4-phenyl-2-pentanol], the MIC in assay [1] amounted to 1100 µg/mL; in the assay with Corynebacterium xerosis, 1100 µg/mL; in assay [2] it was 1100 µg/mL; in the assay on Propionibacterium acnes, 1100 µg/mL; with Aspergillus niger it was 550 µg/mL; in the assay with Candida albicans, 1100 µg/mL. Besides, the MIC with Malassezia furfur was 69 µg/mL; in assay [3], 550 µg/mL; in the assay on Escherichia coli it was above 1100 µg/mL; in the assay on Pseudomonas aeruginosa it was above 1100 µg/mL. In addition, the “activity” value in the assay on Propionibacterium acnes is “an activity can also be observed”. Further, the “effectiveness against moulds (in words)” value with Aspergillus niger is reported as “most effective”. Besides, the “effectiveness against yeasts such as Candida albicans (in words)” value with Candida albicans is reported as “most effective”. Moreover, the “glycolysis-inhibiting action (in words)” value with glycolysis is “a certain glycolysis-inhibiting action”.
